“Also recorded” adds a separate entry of the source.
Key:
[1] = tested on: MDA-MB-468 breast carcinoma cell line (pRB mutant); assay: Proliferation assay: determination of GI50; format: cell-based; details: Homo sapiens, Table 4, n = 2, read-out: Growth inhibition GI50, Breast cancer pRB Mutant MDA-MB-468
Method: (§1) The following human tumor cell lines, all Retinoblastoma (Rb)-proficient, were used in this study: MDA-MB231 (breast cancer), MDA-MB453 (breast cancer), U87MG (glioblastoma) and H460 (lung cancer). MDA-MB468 (breast cancer) and SW1783 (glioblastoma) Rb-deficient cells were also included in the study, as well as the MCF10A non-transformed mammary epithelial cell line. Tumor cell lines were maintained in DMEM or RPMI-1640 medium, depending on the cell line, supplemented with 10% FBS. MCF10A cells were grown in complete mammary epithelial growth medium (MEGM, Lonza). Cell lines were authenticated by short tandem repeat (STR) loci profiling with the GenePrint® 10 System (Promega).
(§2) All human cancer cell lines (Table 2) were obtained from the American Type Culture Collection, and were maintained in DMEM (Hyclone) or RPMI-1640 medium (Sigma) supplemented with 10% fetal bovine serum (Sigma). Non-transformed MCF10 cell line was maintained in MEGM Mammary Epithelial Cell Growth Medium (Lonza). Immortalized mouse embryonic fibroblasts (MEFs) were maintained in DMEM with 10% fetal bovine serum.
(§3) 48 h later cells were fixed with PFA 4% for 15 minutes, stained with 10 μg/ml Hoechst 33342 (Molecular Probes, Thermo Fisher) for 30 minutes and washed twice with PBS. Cells were imaged in a high content screening system (Opera Phoenix™, Perkin Elmer) using a 20× dry objective (30 fields/well). Cell counts were determined by the Opera software (Perkin Elmer) and data were further processed with SPSS software. GI50 was calculated by estimating the absolute IC50 using dose-response inhibition tool in Prism6 (Graphpad Software Inc.).

[2] = tested on: SW1783 glioblastoma cell line (pRB mutant); assay: Proliferation assay: determination of GI50; format: cell-based; details: Homo sapiens, Table 4, n = 4, read-out: Growth inhibition GI50, Glioblastoma pRB Mutant SW1783
Method: as §1, §2, §3

[3] = Kinetic solubility (pH 7.4); format: physicochemical; details: pH 7.4, aqueous buffer, kinetic from dmso stock
[4] = Metabolic stability in microsomes; format: in vitro ADME; details: human, 60-90 min test; for microsomal CLint: read-out: Metabolic stability, Human microsomes: Clearance; for half-life: read-out: Metabolic stability, Human microsomes: t1/2
[5] = Metabolic stability in hepatocytes; format: in vitro ADME; details: human, 60-90 min test; for hepatocyte CLint: read-out: Metabolic stability, Human hepatocytes: Clearance; for half-life: read-out: Metabolic stability, Human hepatocytes: t1/2
Cdk2/4/6_KO MEFs = assay: Cell growth in Cdk-deficient MEFs; format: cell-based, mouse; details: relative cell count day 6 versus day 3; FIG. 4
Method: (§4) Cdk-deficient MEFs were plated in 10-cm dish in triplicate (100,000/well) and treated with the selected compounds at the indicated concentration, based on GI50 previously determined in the MDA-MB-231 cell line. Cells were counted in an optical microscope 3 and 6 days after treatment to estimate the relative cell growth in each condition.
(§5) To further investigate the relative functional dependence of the subject compounds on CDK2 versus CDK4 or CDK6, the specific effects of PS004, PS006 and PS009 were tested on CDK-deficient mouse embryonic fibroblasts (MEFs) obtained from Cdk2 knock out, Cdk4; Cdk6-double knock out and Cdk2; Cdk4; Cdk6-triple knock out mouse models.

Cdk4/6_KO MEFs = assay: Cell growth in Cdk-deficient MEFs; format: cell-based, mouse; details: relative cell count day 6 versus day 3; FIG. 4
Method: as §4, §5

[6] = tested on: pRB-wild-type and pRB-deficient breast cancer cells (MDA-MB-231, MDA-MB-468); assay: GI50 compared in pRB-wild-type and pRB-deficient cells; format: cell-based, human; details: comparison of GI50, Table 4
Method: (§6) […]. Cell counts were determined by the Opera software (Perkin Elmer) and data were further processed with SPSS software. GI50 was calculated by estimating the absolute IC50 using dose-response inhibition tool in Prism6 (Graphpad Software Inc.).
(§7) CDK4/6 kinases drive cell cycle progression by phosphorylating the retinoblastoma protein (pRB), thus, releasing its repressive activity on transcription. Accordingly, CDK4/6 specific inhibitors are inefficient in pRB-deficient cells, as cell cycle transcription is induced with independence of CDK4/6 activity. The subject compounds were therefore evaluated to what extent depend on the presence of a functional pRB. Two pairs of human cancer cell lines representing pRB-wild-type and pRB-deficient breast cancer and glioblastoma were tested. […].

[7] = tested on: pRB-wild-type and pRB-deficient glioblastoma cells (U87MG, SW1783); assay: as above; format: cell-based, human; details: comparison of GI50, Table 4
Method: as §6, §7

[8] = tested on: luminal-like (ZR75-1, T47D, MCF7) and non-luminal (HCC1143, MDA-MB-231, BT549, MDA-MB-468) breast cancer cell lines; assay: Relative cell growth in a panel of breast cancer cell lines (6 days); format: cell-based, human; details: 6 days at GI50 dose (determined in MDA-MB-231); FIG. 5
Method: Data are mean±s.e.m. (3 technical replicates).
Relative cell proliferation was calculated by counting cell number at day 6 in treated cells versus cells treated with vehicle (DMSO).

[9] = tested on: pRB phosphorylation and cell cycle markers in MDA-MB-231 and MDA-MB-468 cells; assay: Immunoblotting of cell cycle markers; format: cell-based, human; details: GI50 dose, 48 hours; FIG. 6
Method: MDA-MB-231 and MDA-MB-468 cells were treated with the indicated compounds using the G150 corresponding to the MDA-MB-231 cell line, and 48 hours later lysed in Laemmli buffer (60 mM Tris-Cl pH 6.8, 10% Glycerol, 2% SDS). Protein concentration was determined using BCA method (Pierce).

phospho RB1 Ser807/811 = assay: In vivo target engagement (phospho-RB staining of tissues); design: species or system mice; details: FIG. 7
Description: FIG. 7 depicts the effect of PS004, PS006 and PS009 on the phosphorylation of the retinoblastoma protein in different tissues using antibodies against phospho RB1 Ser807/811. Micrographs are representative from three different mice per treatment.
For histological analysis, mice tissues and human xenografts were fixed in 10%-buffered formalin (Sigma) and embedded in paraffin wax. Sections of 3- or 5-μm thickness were stained with haematoxylin and eosin. Additional immunohistochemical examination was performed using a specific antibody against phospho-Rb (Ser807/811; Cell Signaling) or Ki67 (DAKO).
For in vivo evaluation, the target engagement for the subject compounds in vivo was tested first.

[10] = Summary of solubility, metabolic stability and permeability

SMILES | GI50 [1] | GI50 [2] | solubility kinetic [3] | microsomal CLint [4] | half-life [4] | hepatocyte CLint [5] | half-life [5] | cell proliferation of Cdk2; Cdk4; Cdk6-triple knock out MEFs (Cdk2/4/6_KO MEFs) | cell proliferation of Cdk4; Cdk6-double knock out MEFs (Cdk4/6_KO MEFs) | efficiency in pRB-null versus pRB-wild-type breast cancer cells [6] | efficiency in pRB-deficient versus pRB-wild-type glioblastoma cells [7] | relative cell growth, luminal-like and non-luminal breast cancer cell lines [8] | levels of cell cycle markers [9] | pRB phosphorylation [9] | phospho-RB staining in bone marrow, intestine and spleen (phospho RB1 Ser807/811) | Summary: permeability [10] | Summary: solubility [10] | Summary: stability [10] | Summary: efflux [10]
CC(=O)c1c(C)c2cnc(Nc3ccc(N4CCC(CCCO)CC4)cc3)nc2n(C2CCCC2)c1=O [PS009, 6-acetyl-8-cyclopentyl-2-((4-(4-(3-hydroxypropyl)piperidin-1-yl)phenyl)amino)-5-methylpyrido[2,3-d]pyrimidin-7(8H)-one] | 3900 nM | 8 µM | < 1 µM | 33 µL/min/mg | 42 min | 41.7 µL/min/1e6 cells | 33.3 min | efficient in preventing cell proliferation | efficient in preventing cell proliferation | equally efficient | equally efficient | efficient in both pRB-wild-type and mutant cell lines; also recorded: efficiently inhibit both luminal and non-luminal breast cancer cells; also recorded: able to inhibit proliferation in non-luminal, pRB-mutant breast cancer cells lines | reduced levels of most cell cycle markers | strong inhibition | evident RB target inhibition | Low | insoluble; also recorded: Insoluble, |  | 
CC(O)CCC1CCN(c2ccc(Nc3ncc4ccc(=O)n([C@@H]5CC6CCC5C6)c4n3)cc2)CC1 (stereo partly drawn) [PS004, 8-((2R)-bicyclo[2.2.1]heptan-2-yl)-2-((4-(4-(3-hydroxybutyl)piperidin-1-yl)phenyl)amino)pyrido[2,3-d]pyrimidin-7(8H)-one] | 3000 nM | 11.5 µM | < 1 µM | 40.8 µL/min/mg | 34 min | < 6.4 µL/min/1e6 cells | > 217 min | efficient in preventing cell proliferation | efficient in preventing cell proliferation |  | more inefficient |  |  |  | evident RB target inhibition | Low | Insoluble, | Stable | 
CC(O)COC1CCN(c2ccc(Nc3ncc4ccc(=O)n([C@@H]5CC6CCC5C6)c4n3)cc2)CC1 (stereo partly drawn) [PS006, 8-((2R)-bicyclo[2.2.1]heptan-2-yl)-2-((4-(4-(2-hydroxypropoxy)piperidin-1-yl)phenyl)amino)pyrido[2,3-d]pyrimidin-7(8H)-one] | 2500 nM | 2.2 µM | < 1 µM | 119 µL/min/mg | 11.6 min | 49 µL/min/1e6 cells | 28.3 min | efficient in preventing cell proliferation | efficient in preventing cell proliferation | equally efficient | equally efficient |  |  |  |  | High | insoluble; also recorded: Insoluble, | highly unstable | permeable/No
